Where a name gives a salt, the structure may show the parent alone.
Tests used:
Conditions in all cases: 72 h
BV-173 [1] = system: BV-173
How it was run: (§1)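 For the IC50, dose–response curves were fitted with a log-logistic model. The data came from fifteen myeloid leukaemia cell lines grown in RPMI 1640 at densities in the linear growth range and incubated in 384-well plates for 72 h at 37 °C under 5% CO2. Doses were five tenfold steps from 1 to 10,000 nM in duplicate, and luminescent ATP viability was normalised to vehicle and to a positive control at 10 µM before four-parameter fitting.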

HEL [2] = system: HEL
How it was run: as §1

HL-60 [3] = system: HL-60
How it was run: as §1

K-562 [4] = system: K-562
How it was run: as §1

KCL-22 [5] = system: KCL-22
How it was run: as §1

KG-1 [6] = system: KG-1
How it was run: as §1

KU-812 = system: KU-812
How it was run: as §1

LAMA-84 = system: LAMA-84
How it was run: as §1

ML-2 = system: ML-2
How it was run: as §1

MOLM-13 = system: MOLM-13
How it was run: as §1

MV4-11 = system: MV4-11
How it was run: as §1

Mono-Mac-6 = system: Mono-Mac-6
How it was run: as §1

NOMO-1 = system: NOMO-1
How it was run: as §1

SHI-1 = system: SHI-1
How it was run: as §1

THP-1 = system: THP-1
How it was run: as §1

BV-173 [7] = assay: cell viability (% survival relative to DMSO control, bortezomib = 0%); higher = less cytotoxic
How it was run: (§2)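 Seeding density for each of the 10 AML and 5 CML cell lines was titrated to the linear growth range. Cells went into 384-well plates pre-printed in duplicate with compounds at 1, 10, 100, 1000 or 10000 nM and were held for 72 h at 37 °C with 5% CO2. CellTiter-Glo luminescence then provided the readout. Percent survival is expressed relative to vehicle at 100% and a 10 µM positive control at 0%, averaged over duplicates.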

HEL [8] = assay: as above
How it was run: as §2

HL-60 [9] = assay: as above
How it was run: as §2

K-562 [10] = assay: as above
How it was run: as §2

KCL-22 [11] = assay: as above
How it was run: as §2

KG-1 [12] = assay: as above
How it was run: as §2

Cc1cc(CS(=O)(=O)c2ccccc2)cc(OCc2ccc(CN3CCC[C@@H]3CO)cc2)c1 [PF-543 hydrochloride]
Conditions | IC50 (cell viability) [µM]
BV-173 [1] | 8.45
HEL [2] | > 10
HL-60 [3] | > 10
K-562 [4] | 4.85
KCL-22 [5] | > 10
KG-1 [6] | > 10
KU-812 | > 10
LAMA-84 | > 10
ML-2 | > 10
MOLM-13 | > 10
MV4-11 | > 10
Mono-Mac-6 | > 10
NOMO-1 | > 10
SHI-1 | > 10
THP-1 | > 10

cell viability [%]
Conditions | BV-173 [7] | HEL [8] | HL-60 [9] | K-562 [10] | KCL-22 [11] | KG-1 [12]
1 nM | 83.7 | 92 | 118 | 90.4 | 91.5 | 92.1
10 nM | 103 | 88.6 | 92.2 | 113 | 94.5 | 102
100 nM | 152 | 105 | 119 | 131 | 122 | 114
1000 nM | 87.8 | 88.1 | 83.7 | 91.1 | 82.5 | 111
10000 nM | 56.7 | 94 | 79.8 | 40.4 | 84.9 | 84.3

— the supplement of paper PMC8671470
